Reference: patent US20260262643A1, “HERBICIDAL BENZOXAZINES” (FMC CORPORATION, priority 2022, published 2026)

Legend:
kochia [1] = assay: Test C preemergence; format: in vivo, Bassia scoparia; details: preemergence, 0 to 100 scale (0 no effect, 100 complete control)
In short: (§1)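 Test material, in non-phytotoxic solvent with surfactant, was sprayed on the soil directly after seeding (preemergence) or on young plants of 2–10 cm with one to two leaves (postemergence). Greenhouse, 10 days; 0–100 visual control scale.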

wheat [2] = assay: Test C postemergence; format: in vivo, Triticum aestivum; details: postemergence, 10 days
In short: as §1

oat, wild [3] = assay: Test C preemergence; format: in vivo, Avena fatua; details: preemergence, 0 to 100 scale (0 no effect, 100 complete control)
In short: as §1

corn [4] = assay: Test C preemergence; format: in vivo, Zea mays; details: preemergence, 0 to 100 scale (0 no effect, 100 complete control)
In short: as §1

wheat [5] = assay: Test C preemergence; format: in vivo, Triticum aestivum; details: preemergence, 0 to 100 scale (0 no effect, 100 complete control)
In short: as §1

pigweed, palmer [6] = assay: Test C postemergence; format: in vivo, Amaranthus palmeri; details: postemergence, 10 days
In short: as §1

pigweed, palmer [7] = assay: Test C preemergence; format: in vivo, Amaranthus palmeri; details: preemergence, 0 to 100 scale (0 no effect, 100 complete control)
In short: as §1

sedge, umbrella = assay: Test D flooded paddy test; format: in vivo, Cyperus difformis; details: 250 g ai/ha, applied to paddy water, visual rating after 13 to 14 days, scale 0 to 100 (0 no effect, 100 complete control)
In short: (§2)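 Plants grown to the 2-leaf stage; pots flooded to 3 cm above soil at treatment and held at that depth throughout. Test compounds applied directly to the paddy water. After 13 to 14 days in a greenhouse, response was rated visually versus controls on a 0 (no effect) to 100 (complete control) scale.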

rice = assay: Test D flooded paddy test; format: in vivo, Oryza sativa; details: 250 g ai/ha, applied to paddy water, visual rating after 13 to 14 days, scale 0 to 100 (0 no effect, 100 complete control)
In short: as §2

blackgrass [8] = assay: Test C postemergence; format: in vivo, Alopecurus myosuroides; details: postemergence, 10 days
In short: as §1

horseweed = assay: Test C postemergence; format: in vivo, Erigeron canadensis; details: postemergence, 10 days
In short: as §1

galium = assay: Test C postemergence; format: in vivo, Galium aparine; details: postemergence, 10 days
In short: as §1

green foxtail [9] = assay: Test C postemergence; format: in vivo, Setaria viridis; details: postemergence, 10 days
In short: as §1

ducksalad = assay: Test D flooded paddy test; format: in vivo, Heteranthera limosa; details: 250 g ai/ha, applied to paddy water, visual rating after 13 to 14 days, scale 0 to 100 (0 no effect, 100 complete control)
In short: as §2

ragweed [10] = assay: Test C postemergence; format: in vivo, Ambrosia artemisiifolia; details: postemergence, 10 days
In short: as §1

corn [11] = assay: Test C postemergence; format: in vivo, Zea mays; details: postemergence, 10 days
In short: as §1

soybean [12] = assay: Test C postemergence; format: in vivo, Glycine max; details: postemergence, 10 days
In short: as §1

blackgrass [13] = assay: Test C preemergence; format: in vivo, Alopecurus myosuroides; details: preemergence, 0 to 100 scale (0 no effect, 100 complete control)
In short: as §1

barnyardgrass [14] = assay: Test C preemergence; format: in vivo, Echinochloa crusgalli; details: preemergence, 0 to 100 scale (0 no effect, 100 complete control)
In short: as §1

soybean [15] = assay: Test C preemergence; format: in vivo, Glycine max; details: preemergence, 0 to 100 scale (0 no effect, 100 complete control)
In short: as §1

green foxtail [16] = assay: Test C preemergence; format: in vivo, Setaria viridis; details: preemergence, 0 to 100 scale (0 no effect, 100 complete control)
In short: as §1

ragweed [17] = assay: Test C preemergence; format: in vivo, Ambrosia artemisiifolia; details: preemergence, 0 to 100 scale (0 no effect, 100 complete control)
In short: as §1

kochia [18] = assay: Test C postemergence; format: in vivo, Bassia scoparia; details: postemergence, 10 days
In short: as §1

ryegrass, Italian [19] = assay: Test C postemergence; format: in vivo, Lolium multiflorum; details: postemergence, 10 days
In short: as §1

barnyardgrass [20] = assay: Test D flooded paddy test; format: in vivo, Echinochloa crus-galli; details: 250 g ai/ha, applied to paddy water, visual rating after 13 to 14 days, scale 0 to 100 (0 no effect, 100 complete control)
In short: as §2

oat, wild [21] = assay: Test C postemergence; format: in vivo, Avena fatua; details: postemergence, 10 days
In short: as §1

barnyardgrass [22] = assay: Test C postemergence; format: in vivo, Echinochloa crusgalli; details: postemergence, 10 days
In short: as §1

ryegrass, Italian [23] = assay: Test C preemergence; format: in vivo, Lolium multiflorum; details: preemergence, 0 to 100 scale (0 no effect, 100 complete control)
In short: as §1

[24] = 125 g ai/ha, 0 to 100 scale, 0 no effect, 100 complete control
[25] = 500 g ai/ha, 0 to 100 scale (0 no effect, 100 complete control)

Compound: CCc1ncn(-c2ccc(C)c(C(=O)N3CC(C(F)(F)F)Oc4c(Cl)cccc43)c2)n1 (racemic) [Compound 290]
- Kochia plant response rating (kochia [1]; 500 g ai/ha): 90
- Kochia plant response rating (kochia [1]; Test C, 125 g ai/ha): 90
- Plant response rating, Wheat (wheat [2]; [24]): 30
- Plant response rating, Wheat (wheat [2]; [25]): 60
- Oat, Wild plant response rating (oat, wild [3]; 500 g ai/ha): 90
- Oat, Wild plant response rating (oat, wild [3]; Test C, 125 g ai/ha): 70
- Corn plant response rating (corn [4]; 500 g ai/ha): 40
- Corn plant response rating (corn [4]; Test C, 125 g ai/ha): 30
- Wheat plant response rating (wheat [5]; 500 g ai/ha): 50
- Wheat plant response rating (wheat [5]; Test C, 125 g ai/ha): 30
- Plant response rating, Pigweed, Palmer (pigweed, palmer [6]; [24]): 100
- Plant response rating, Pigweed, Palmer (pigweed, palmer [6]; [25]): 100
- Pigweed, Palmer plant response rating (pigweed, palmer [7]; 500 g ai/ha): 100
- Pigweed, Palmer plant response rating (pigweed, palmer [7]; Test C, 125 g ai/ha): 100
- Plant response rating, Sedge, Umbrella (Flood) (sedge, umbrella): 85
- Plant response rating, Rice (Flood) (rice): 10
- Plant response rating, Blackgrass (blackgrass [8]; [24]): 10
- Plant response rating, Blackgrass (blackgrass [8]; [25]): 90
- Plant response rating, Horseweed (horseweed; [24]): 40
- Plant response rating, Horseweed (horseweed; [25]): 40
- Plant response rating, Galium (galium; [24]): 100
- Plant response rating, Galium (galium; [25]): 100
- Plant response rating, Foxtail, Green (green foxtail [9]; [24]): 80
- Plant response rating, Foxtail, Green (green foxtail [9]; [25]): 90
- Plant response rating, Ducksalad (Flood) (ducksalad): 50
- Plant response rating, Ragweed (ragweed [10]; [24]): 70
- Plant response rating, Ragweed (ragweed [10]; [25]): 80
- Plant response rating, Corn (corn [11]; [24]): 30
- Plant response rating, Corn (corn [11]; [25]): 30
- Plant response rating, Soybean (soybean [12]; [24]): 100
- Plant response rating, Soybean (soybean [12]; [25]): 100
- Blackgrass plant response rating (blackgrass [13]; 500 g ai/ha): 70
- Blackgrass plant response rating (blackgrass [13]; Test C, 125 g ai/ha): 70
- Barnyardgrass plant response rating (barnyardgrass [14]; 500 g ai/ha): 100
- Barnyardgrass plant response rating (barnyardgrass [14]; Test C, 125 g ai/ha): 90
- Soybean plant response rating (soybean [15]; 500 g ai/ha): 80
- Soybean plant response rating (soybean [15]; Test C, 125 g ai/ha): 90
- Foxtail, Green plant response rating (green foxtail [16]; 500 g ai/ha): 100
- Foxtail, Green plant response rating (green foxtail [16]; Test C, 125 g ai/ha): 100
- Ragweed plant response rating (ragweed [17]; 500 g ai/ha): 70
- Ragweed plant response rating (ragweed [17]; Test C, 125 g ai/ha): 60
- Plant response rating, Kochia (kochia [18]; [24]): 80
- Plant response rating, Kochia (kochia [18]; [25]): 90
- Plant response rating, Ryegrass, Italian (ryegrass, Italian [19]; [24]): 50
- Plant response rating, Ryegrass, Italian (ryegrass, Italian [19]; [25]): 90
- Plant response rating, Barnyardgrass (Flood) (barnyardgrass [20]): 10
- Plant response rating, Oat, Wild (oat, wild [21]; [24]): 10
- Plant response rating, Oat, Wild (oat, wild [21]; [25]): 90
- Plant response rating, Barnyardgrass (barnyardgrass [22]; [24]): 50
- Plant response rating, Barnyardgrass (barnyardgrass [22]; [25]): 90
- Ryegrass, Italian plant response rating (ryegrass, Italian [23]; 500 g ai/ha): 100
- Ryegrass, Italian plant response rating (ryegrass, Italian [23]; Test C, 125 g ai/ha): 90
